Measurements published in US8361483B2, “Epinecidin-1 as a vaccine adjuvant for enhancing immune responses” (priority 2011, dated 2013).
Entries after “also recorded” stand apart in the source; their conditions may differ. Where no end group is shown, it is not given here.

Key:
[1] = test system: BHK-21 cells; test: Cell proliferation assay, Epi-1 alone on BHK-21 cells; format: cell-based, baby hamster; conditions: Epi up to 1 μg/ml, 48 h, n=3
Excerpt: Baby hamster kidney (BHK)-21 cells were purchased and maintained as per American Type Culture Collection (ATCC no. CCL10, Manassas, Va., USA) instructions. Female C3H/HeN mice, purchased from the National Laboratory Animal Breeding and Research Center (Taiwan) and BioLASCO (Taipei, Taiwan), were housed at the Laboratory Animal Facility, National Taiwan Ocean University NTOU; Keelung, Taiwan). Mice were maintained in pathogen-free sterile isolators according to institutional guidelines, and all food, water, caging, and bedding were sterilized before use. All procedures were approved by the Animal Care and Use Committee of NTOU. The 50% lethal dose (LD50) of JEV in female C3H/HeN mice was determined. The Beijing-1 JEV strain was maintained in suckling mouse brains as previously described.
BHK-21 cells in 48-well plates were assayed with CellTiter 96 Aqueous One Solution (Promega, Madison, Wis., USA) following the vendor's instructions. Epi-1 was administered together with Japanese encephalitis virus (JEV) as co-treatment; Epi-1 was administered 24 h prior to (prophylaxis) or after (curative) the JEV inoculation. After blank value subtraction, the percentage survival against control cells was calculated. […]
The effects of Epi-1 on JEV in BHK-21 cells were studied. […] At 48 h, cell viability of JEV infection was determined (FIG. 1a). […]

[2] = Toxicity of Epi-1 alone injected i.p. in adult mice
Experimental: Six-week-old adult C3H/HeN mice were randomly divided into five groups of 10 mice each. […] After 14 days, a re-challenge was carried out on surviving mice with 50× the LD50 of JEV. Mouse survival and activity were monitored on a daily basis for up to 25 days after the primary injection. For serological studies, serum was collected on days 4, 7, and 21 after treatment. A similar approach was followed to test immunized mice.
JEV was co-injected with or without Epi-1 at various dosages (50, 100, and 200 μg/ml) into adult mice and subsequently boosted (a second JEV challenge without Epi-1) on day 14. The survival rate of mice was recorded for 25 days.

GFIFHIIKGLFHAGKMIHGLV [Epi-1, epinecidin-1]
cell viability [1]: did not affect cell viability; also recorded: no detectable cytotoxicity | survival and behaviour ([2]; 200 μg/ml Epi-1 alone i.p., n=10): all mice survived and behaved normally | toxic effects ([2]; Epi-1 alone, adult mice): No toxic effects were noted; also recorded: no detectable cytotoxicity
